Measured values reported in patent publication US12576129B2, “Anthelmintic compositions and methods” (priority 2016, dated 2026).
≈ marks a conversion by molar mass, not a printed value. Read-outs that look alike come from different tables or passages of the source.

Legend:
[1] = system: Ancylostoma ceylanicum hookworms; settings: cited from earlier work; for % Parasite reduction: A. ceylanicum infections in hamsters; for reduction of A. ceylanicum burdens: hamsters
[2] = system: BaCC; test: Minimum inhibitory concentration of terpenes against BaCC (broth microdilution); assay type: cell-based; settings: Bacillus thuringiensis; 24 h at 30° C. in LB; no absorbance increase; read-out: MIC μg/mL (100)
Method: Three terpenes were tested against BaCC including: carvacrol, geraniol and farnesol, by using the broth microdilution method as described in Agaisse and Lereclus, J. Bacteriol. 176, 4734-4741, 1994 and Agaisse and Lereclus, Mol. Microbiol. 13, 97-107, 1994 with some modifications. Briefly, BaCC from a single colony was grown in 5 mL of LB medium supplemented with 10 μg/mL erythromycin+200 μg/mL kanamycin overnight (O.D. (600) of 4.8, 2.3×10^7 CFU/mL). Terpene solutions were prepared at 1 mg/mL in LB. One hundred μL of two-fold serial dilutions of each terpene in LB were prepared in 96-well microtiter plates over the range of 1000 to 3.9 μg/mL in triplicate. LB without terpenes was used as a negative control. BaCC culture was diluted 100 times, and 100 μL of BaCC culture was added to the wells. Absorbance at 600 nm was recorded before and after the incubation to monitor bacterial growth. The MICs were determined after incubation for 24 h at 30° C. without shaking.

[3] = system: BaCC; test: Time to kill: CFU/mL of BaCC after terpene treatment; assay type: cell-based, Bacillus thuringiensis
Method: In order to determine which terpene kills BaCC in the shortest amount of time, we incubated 5 mL of BaCC culture with three terpenes at 1 mg/mL at 4° C. for 1, 2, 3 and 5 hours. No terpene control and no bacteria controls were carried out simultaneously. After incubation with terpenes, samples were centrifuged and the pellets were washed with 5 mL of 1M NaCl once and 5 mL of sterile distilled water twice in order to remove the terpenes. The pellets were re-suspended in the original volume and plated on LB agar with kanamycin and erythromycin. Plates were incubated overnight at 30° C.; the next day, the number of colonies on the plates were enumerated and colony forming units (CFU)/mL calculated.
To assess terpene killing at shorter time points, BaCC culture was grown in 3× LB for 48 h as described above and 60 ml of cultures were aliquoted in sterile tubes. Carvacrol and geraniol were added to the final concentration of 1 mg/mL, and the tubes were placed on a rotator at 4° C. for 15 minutes. The negative control was prepared using sterile water instead of terpenes. At the end of the incubation period, the tubes were centrifuged at 2000× g for 10 minutes and pellets washed with 60 ml of 1 M NaCl once and washed with 60 mL of sterile distilled water twice. Pellets were re-suspended in 1.2 mL of sterile distilled water to concentrate the culture 50 times. Concentrated terpene treated and control samples were plated on LB agar plates containing kanamycin and erythromycin and incubated overnight at 30° C. The number of colonies were counted the next day and CFU/mL calculated for each time point.

Structure (SMILES)	MIC [2]	CFU/ml (1 mg/mL terpene treatment for time indicated) ([3]; 1 h at 4° C.)	CFU/ml (1 mg/mL terpene treatment for time indicated) ([3]; 3 h at 4° C.)	CFU/ml (1 mg/mL terpene treatment for time indicated) ([3]; 5 h at 4° C.)	CFU/ml (1 mg/mL terpene treatment for time indicated) ([3]; time 0)	% Parasite reduction ([1]; 10 mg/kg)	reduction of A. ceylanicum burdens ([1]; 10-mg/kg dose)	also measured
CCCSc1ccc2nc(NC(=O)OC)[nH]c2c1 [Albendazole, albendazole]	–	–	–	–	–	–	–	% Parasite reduction ([1]; 1.25 mg/kg): 88%; reduction of A. ceylanicum burdens ([1]; 1.25-mg/kg (4.7 μmol/kg) dose): 88%; dose required to clear the same infection ([1]; in vivo): 5 mg/kg
CC(C)=CCCC(C)=CCCC(C)=CCO [Farnesol, farnesol]	500 µg/mL (≈ 2250 µM)	1.00 × 10^7 CFU/ml	1.30 × 10^5 CFU/ml	0 CFU/ml	2.31 × 10^7 CFU/ml	–	–	–
CC(C)=CCC/C(C)=C/CO [Geraniol, geraniol]	500 µg/mL (≈ 3240 µM)	0 CFU/ml	0 CFU/ml	0 CFU/ml	2.31 × 10^7 CFU/ml	–	–	CFU/ml (1 mg/mL terpene treatment for time indicated) ([3]; 15 min at 4° C., culture concentrated 50 times (50X conc.) before plating): 100 CFU/ml
c1ccc([C@H]2CN3CCSC3=N2)cc1 [Levamisole, levamisole]	–	–	–	–	–	60%	60%	–
CN1CCCN=C1/C=C/c1cccs1 [Pyrantel, pyrantel]	–	–	–	–	–	87%	87%	–
C/C(=N/c1ccc(/N=C/c2ccc(/C=N/c3ccc(/N=C(/C)N(C)C)cc3)cc2)cc1)N(C)C [Tribendimidine, tribendimidine]	–	–	–	–	–	75%	75%	–
